The test concerns the target Porcine pancreatic elastase (PPE) (Sus scrofa, UniProt P00772). The test is described as follows: Porcine pancreatic elastase (PPE) enzyme inhibitory assay. Type of test: biochemical. The following applies: for Average % inhibition: average of three; for Inhibition Rate (%): single determination. How it is done:
The elastase inhibitory activity of certain plant extracts was evaluated in vitro using Porcine pancreatic elastase (PPE) enzyme inhibitory assay as described by Cannel et al. (1988) with some modifications. The assay was performed in 0.2 M Tris-HCL buffer (pH 8.0). Porcine pancreatic elastase was dissolved to make a 100 unit stock solution in sterile water. The substrate N-Succinyl-Ala-Ala-Ala-p-nitroanilide (AAAPVN) was dissolved in buffer. The plant extracts were incubated with the enzyme for 25 minutes before adding the substrate to begin the reaction. […] EGCG was used as a positive control, and tris-HCl was used as the blank.
Maximum Velocities (Vmax) were taken at a wavelength of 410 nm for 25 minutes at 30 second intervals. Percentage inhibitions were calculated by the following equation: […]
where Vmax(sample) is the velocity of the sample extracts and Vmax(control) is the velocity of the assay using the buffer instead of inhibitor (sample).

Molecules are shown by their SMILES. Values joined by “and” are separate entries in the source; they are usually repeats but may differ in a detail not shown here. Equal entries are not always repeated.

Chain of Porcine pancreatic elastase (PPE) (P00772 27-266): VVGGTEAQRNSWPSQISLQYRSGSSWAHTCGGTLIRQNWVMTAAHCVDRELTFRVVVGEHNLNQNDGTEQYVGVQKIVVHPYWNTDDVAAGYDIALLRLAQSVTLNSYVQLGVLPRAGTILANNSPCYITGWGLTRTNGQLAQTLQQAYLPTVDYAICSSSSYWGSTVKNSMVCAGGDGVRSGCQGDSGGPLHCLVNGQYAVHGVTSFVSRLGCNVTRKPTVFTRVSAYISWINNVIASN

Turning to `O=C(O[C@@H]1Cc2c(O)cc(O)cc2O[C@@H]1c1cc(O)c(O)c(O)c1)c1cc(O)c(O)c(O)c1` [EGCG, epigallocatechin gallate], the Average % inhibition came to 4.80% (31.25 μg/ml); 15.57% (62.5 μg/ml); 36.25% (125 μg/ml); 41.56% (250 μg/ml); 43.47% (500 μg/ml); 48.97% (1000 μg/ml). The Average % inhibition (2000 μg/ml) amounted to 52.78%. Besides, the “Inhibition Rate (%)” value reads like this: (31.25 μg/ml) 6.76% and 1.06% and 6.58%; (62.5 μg/ml) 20.43% and 14.78% and 11.52%; (125 μg/ml) 39.69% and 35.13% and 33.94%; (250 μg/ml) 45.23% and 41.13% and 38.32%; (500 μg/ml) 45.20% and 41.64% and 43.58%; (1000 μg/ml) 49.48% and 47.89% and 49.56%. Besides, the “Inhibition Rate (%)” value (2000 μg/ml) is 52.32% and 52.75% and 53.28%.

For the origin of these results see patent US20250381131A1, “COMPOSITION AND METHOD FOR INHIBITING ELASTASE ACTIVITY” (ACCESS BUSINESS GROUP INTERNATIONAL LLC, priority 2022, published 2025).
